# From patent US9878999B2, “Proteasome chymotrypsin-like inhibition using PI-1833 analogs” (H. Lee Moffitt Cancer Center and Research Institute, Inc., priority 2011, dated 2018)
# Several values for one entry are separate records, joined by “and”; a condition that tells them apart may be missing. Equal entries are not always repeated. Entries after “also recorded” stand apart in the source; their conditions may differ. Where two headings read alike, the source gives them in different places.
# Experiments:
# [1] = molecular target: CT-L activity of purified 20S proteasome (Homo sapiens, UniProt P20618+P28074); assay: in vitro CT-L activity of purified 20S proteasome; assay type: biochemical
# [2] = molecular target: T1, CT-L activity in human breast cancer MDA-MB-468 cells (Homo sapiens, UniProt P20618+P28074); assay: whole cell CT-L activity in MDA-MB-468 cells; assay type: cell-based
# T1 construct: endogenous in cells; host or cells: MDA-MB-468
# [3] = molecular target: T2, T-L activity in MDA-MB-468 cells (Homo sapiens, UniProt Q99436); assay: T-L activity in MDA-MB-468 cells; assay type: cell-based; conditions: MDA-MB-468, within 10 min
# T2 construct: endogenous in cells; host or cells: MDA-MB-468
# [4] = molecular target: T3, PGPH activity in MDA-MB-468 cells (Homo sapiens, UniProt P28072); assay: PGPH activity in MDA-MB-468 cells; assay type: cell-based; conditions: MDA-MB-468, within 10 min
# T3 construct: endogenous in cells; host or cells: MDA-MB-468
# [5] = system: proteasome substrates p27, Bax and IKB; assay: Western blot, accumulation of proteasome substrates; assay type: cell-based
# [6] = system: MDA-MB-468 and HCT-116 cells; assay: Western blot for cleaved caspase-3 and cleaved PARP (apoptosis); assay type: cell-based, human; conditions: 48 h or 24 h
# Description: FIG. 17 is a blot showing the apoptotic potential of PI-1833 and PI-1840. Exponentially growing human breast cancer cells MDA-MB-468 and colon cancer cells HCT-116 were treated with different concentrations of PI-1833 or PI-1840 for 48 h or 24 h, followed by WB analysis for cleaved caspase-3 and cleaved PARP.
# MDA-MB-468 = assay: MTT assay, proliferation and viability; assay type: cell-based; conditions: Homo sapiens, MDA-MB-468, WT K-Ras
# MDA-MB-231 = assay: MTT assay, proliferation and viability; assay type: cell-based; conditions: Homo sapiens, MDA-MB-231, mut K-Ras
# HCT-116 = assay: MTT assay, proliferation and viability; assay type: cell-based; conditions: Homo sapiens, HCT-116, mut K-Ras
# HCT-116-p53^−/− = assay: MTT assay, proliferation and viability; assay type: cell-based
# HCT-116-HKH2 = assay: MTT assay, proliferation and viability; assay type: cell-based; conditions: HCT-116-HKH2, K-Ras^−/−
# DU-145 = assay: MTT assay, proliferation and viability; assay type: cell-based; conditions: Homo sapiens, DU-145, Bax^−/−
# LNCaP = assay: MTT assay, proliferation and viability; assay type: cell-based; conditions: Homo sapiens, Bax^+/+
# PC3 = assay: MTT assay, proliferation and viability; assay type: cell-based; conditions: Homo sapiens, PC-3
# RPMI-8226 = assay: MTT assay, proliferation and viability; assay type: cell-based; conditions: Homo sapiens
# Colo357 = assay: MTT assay, proliferation and viability; assay type: cell-based; conditions: Homo sapiens, COLO357, 96 h
# RX7-397 = assay: MTT assay, proliferation and viability; assay type: cell-based; conditions: RX7-397, 96 h
# MCF-10A = assay: MTT assay, proliferation and viability; assay type: cell-based; conditions: Homo sapiens, normal/immortalized, 72 h
# [7] = 72 h, read-out: 72 h (MTT assay)
# [8] = 96 h, read-out: 96 h (MTT assay)
# [9] = WT p53, 72 h, read-out: 72 h (MTT assay)
# [10] = WT p53, 96 h, read-out: 96 h (MTT assay)
# [11] = Table 1, read-out: IC50 (μM) Chymotrypsin-like activity
smiles,measurement,setting,value
CCCc1ccc(OCC(=O)N(Cc2nc(-c3cccnc3)no2)C(C)C)cc1 [11ad],fold improved CT-L activity,[1]; compared to the hit 1 (PI-1833),20 fold
same,IC50,"[1]; read-out: IC50, in vitro CT-L",0.032 µM
same,"inhibition of CT-L activity in cells, in words","[2]; MDA-MB-468, listed as PI-1840",inhibits CT-L; also recorded: more potent at inhibiting CT-L activity in human breast cancer
same,"inhibition of T-L activity in cells, in words",[3],not T-L or PGPH
same,"inhibition of PGPH activity in cells, in words",[4],not T-L or PGPH
same,"accumulation of proteasome substrates p27, Bax and IKB, in words",[5],"more potent at accumulating the proteasome substrates p27, Bax and IKB"
same,"induction of apoptosis, in words",[6],efficiently inducing apoptosis
same,IC50,"MDA-MB-468; mut p53, 72 h, read-out: 72 h (MTT assay)",25.4 ± 5.83 µM
same,IC50,"MDA-MB-468; mut p53, 96 h, read-out: 96 h (MTT assay)",11.6 µM
same,IC50,MDA-MB-231; [7],133 ± 21.6 µM
same,IC50,MDA-MB-231; [8],106 µM
same,IC50,HCT-116; [9],40.9 ± 15.8 µM
same,IC50,HCT-116; [10],35.3 µM
same,IC50,HCT-116-p53^−/−; [7],45.9 ± 19.9 µM
same,IC50,HCT-116-p53^−/−; [8],31.1 µM
same,IC50,HCT-116-HKH2; [9],43 ± 9.73 µM
same,IC50,HCT-116-HKH2; [10],12.8 µM
same,IC50,DU-145; [7],123 ± 25.2 µM
same,IC50,DU-145; [8],159 µM
same,IC50,LNCaP; [7],49 ± 6.81 µM
same,IC50,LNCaP; [8],17.2 µM
same,IC50,"PC3; PC3, 72 h, read-out: 72 h (MTT assay)",92.7 µM
same,IC50,"PC3; PC3, 96 h, read-out: 96 h (MTT assay)",62.5 µM
same,IC50,"RPMI-8226; RPMI-8226, 72 h, read-out: 72 h (MTT assay)",35.9 ± 11.2 µM
same,IC50,"RPMI-8226; RPMI-8226, 96 h, read-out: 96 h (MTT assay)",34.7 µM
same,IC50,Colo357,95.7 µM
same,IC50,RX7-397,56.9 µM
same,IC50,MCF-10A,63.1 ± 7.06 µM
"CC(C)N(Cc1nc(-c2ccccc2)no1)C(=O)COc1ccc(C(=O)O)cc1 [11t, 4-(2-(Isopropyl((3-phenyl-1,2,4-oxadiazol-5-yl)methyl)amino)-2-oxoethoxy)benzoic acid]",IC50,[1]; [11],27.8 ± 20.8 µM
same,IC50,"[1]; read-out: IC50, in vitro CT-L",27 µM
same,melting point,,211.3 to 213.8 °C
"Cc1ccc(OCC(=O)N(Cc2nc(-c3ccc(C)cc3)no2)C(C)C)cc1 [compound 1, N-Isopropyl-N-((3-p-tolyl-1,2,4-oxadiazol-5-yl)methyl)-2-(p-tolyloxy)acetamide]",IC50,[1]; [11],0.63 ± 0.35 µM
same,IC50,"[1]; Table 2, read-out: IC50 (μM) Chymotrypsin-like activity",0.63 ± 0.35 µM
same,IC50,"[1]; Table 7, 20S CT-L proteasome activity, read-out: IC50 (μM) CT-L",0.716 ± 0.27 µM
same,IC50,"[1]; read-out: IC50, in vitro CT-L",0.65 ± 0.39 µM
same,IC50,"[2]; MDA-MB-468 breast cancer cells, read-out: whole cell IC50 activity",1.1 µM and 1 µM
Cc1ccc(OCC(=O)N(Cc2nc(-c3ccc(C)cc3)no2)C(C)C)cc1 [drawing 107],IC50,"[1]; Table 5, read-out: IC50 (μM) Chymotrypsin-like",0.63 ± 0.35 µM
same,IC50,"[2]; Table 5, MDA-MB-468, read-out: Whole cell IC50 (μM) Chymotrypsin-like",1.1 µM
